These results are taken from US20060223879A1, “Non-steroidal farnesoid x receptor modulators” (priority 2002, published 2006).

Molecules are shown by their SMILES. Like-named read-outs stand apart in the source and are kept apart here. A value given as a limit tells only on which side of the number the result lay.

The target in the test is T1, FXR (Homo sapiens, UniProt Q96RI1).
T1 construct: using a full length FXR on a natural response element; expressed in transfected cells
T1 sequence (Q96RI1 1-486): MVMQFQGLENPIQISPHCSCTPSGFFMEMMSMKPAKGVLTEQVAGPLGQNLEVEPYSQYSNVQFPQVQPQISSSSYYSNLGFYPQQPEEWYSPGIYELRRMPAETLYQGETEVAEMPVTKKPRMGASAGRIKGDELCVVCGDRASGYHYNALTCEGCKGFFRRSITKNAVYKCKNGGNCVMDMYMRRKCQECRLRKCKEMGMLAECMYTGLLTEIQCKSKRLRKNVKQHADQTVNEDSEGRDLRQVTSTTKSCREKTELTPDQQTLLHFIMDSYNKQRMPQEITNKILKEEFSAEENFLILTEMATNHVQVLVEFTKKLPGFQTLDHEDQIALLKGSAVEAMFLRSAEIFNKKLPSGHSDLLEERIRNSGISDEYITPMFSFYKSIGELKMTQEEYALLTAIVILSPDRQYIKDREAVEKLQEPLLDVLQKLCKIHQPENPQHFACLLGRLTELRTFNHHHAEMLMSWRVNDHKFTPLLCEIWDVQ
In words: cell-based transcription assay, FXR responsive promoter linked to a luciferase reporter. The settings on record: for EC50: FXR activation, read-out: EC50; for EC50 / FXR activation (in words): cell-based reporter assay; for RE: RE not defined in the source. Also on record: RE: scale not given here. The gist of the method:
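Cells co-transfected with full-length FXR and a luciferase reporter carrying a natural hormone response element on a minimal promoter.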

As usually defined, the EC50 is the concentration needed to bring the measured effect to its halfway point. In the case of `COC(=O)C=Cc1cccc(N(Cc2ccc(C=Cc3scnc3C)cc2)C(=O)C2CCCCC2)c1` [Compound 210], the EC50 stood at 227 nM. For the same molecule, the RE (Tables 1-15) was 0.53.
As to `COC(=O)C=Cc1cccc(N(Cc2ccc(C=Cc3scnc3C)cc2)C(=O)C(C)C)c1` [Compound 211], under “Tables 1-15”, the EC50 is 228 nM and the RE was 0.32.
As for `COC(=O)C=Cc1cccc(N(Cc2ccc(C=Cc3scnc3C)cc2)C(=O)NC(C)C)c1` [Compound 212], where the note is “Tables 1-15”, the EC50 amounted to 356 nM and the RE is 0.42.
For the molecule `COC(=O)/C=C/c1cccc(N(Cc2ccc(-c3ccc(F)c(F)c3)cc2)C(=O)C2CCCCC2)c1` [Compound 213], the “FXR activation (in words)” value is recorded as “excellent activity”. Also, under “Tables 1-15”, the EC50 is 72 nM and the RE is 1.70.
Take `COC(=O)/C=C/c1cccc(N(Cc2ccc(-c3ccc(F)c(F)c3)cc2)C(=O)C(C)C)c1` [Compound 214]: for the setting “Tables 1-15”, the EC50 is 249 nM and the RE is on record as 1.15.
In the case of `COC(=O)/C=C/c1cccc(N(Cc2ccc(-c3ccc(F)c(F)c3)cc2)C(=O)NC(C)C)c1` [Compound 215], under “Tables 1-15”, the EC50 was found to be 8180 nM and the RE worked out at 0.23.
Consider `COC(=O)/C=C/c1cccc(N(Cc2ccc(-c3ccc(SC)cc3)cc2)C(=O)C(C)C)c1` [Compound 216], for which the “FXR activation (in words)” value is on record as “excellent activity”. In addition, where the note is “Tables 1-15”, the concentration for a half-maximal effect (EC50) stood at 51 nM and the RE worked out at 0.98.
For the molecule `COC(=O)/C=C/c1cccc(N(Cc2ccc(-c3ccc(SC)cc3)cc2)C(=O)NC(C)C)c1` [Compound 217], for the setting “Tables 1-15”, the EC50 came out at 178 nM and the RE came to 0.23.
In the case of `COC(=O)/C=C/c1cccc(N(Cc2ccc(-c3ccccc3OC)cc2)C(=O)C2CCCCC2)c1` [Compound 218], for the setting “Tables 1-15”, the EC50 is 399 nM and the RE came out at 0.40.
The corresponding values for `COC(=O)/C=C/c1cccc(N(Cc2ccc(-c3ccccc3OC)cc2)C(=O)C(C)C)c1` [Compound 219] are 377 nM and 0.28.
As to `COC(=O)/C=C/c1cccc(N(Cc2ccc(-c3ccccc3OC)cc2)C(=O)NC(C)C)c1` [Compound 220], where the note is “Tables 1-15”, the concentration for a half-maximal effect (EC50) turned out to be 4010 nM and the RE turned out to be 0.09.
For `COC(=O)/C=C/c1cccc(N(Cc2ccc(-c3cc(Cl)cc(Cl)c3)cc2)C(=O)C(C)C)c1` [Compound 221], for the setting “Tables 1-15”, the EC50 worked out at 561 nM and the RE is reported as 0.54.
The corresponding values for `COC(=O)/C=C/c1cccc(N(Cc2ccc(-c3cc(Cl)cc(Cl)c3)cc2)C(=O)NC(C)C)c1` [Compound 222] are over 10000 nM and 0.10.
As for `COC(=O)/C=C/c1cccc(N(Cc2ccc(-c3cccc(OC)c3)cc2)C(=O)C(C)C)c1` [Compound 224], the “FXR activation (in words)” value is “excellent activity”. In addition, under “Tables 1-15”, the EC50 came to 72 nM.
As to `COC(=O)/C=C/c1cccc(N(Cc2ccc(-c3cccc(OC)c3)cc2)C(=O)NC(C)C)c1` [Compound 225], for the setting “Tables 1-15”, the EC50 came to 1370 nM and the RE was 0.41.
The corresponding values for `CCOc1cccc(-c2ccc(CN(C(=O)C3CCCCC3)c3cccc(/C=C/C(=O)OC)c3)cc2)c1` [Compound 226] are 147 nM and 1.37.
Consider `CCOc1cccc(-c2ccc(CN(C(=O)C(C)C)c3cccc(/C=C/C(=O)OC)c3)cc2)c1` [Compound 227], for which, for the setting “Tables 1-15”, the EC50 is 173 nM and the RE was 1.03.
For `CCOc1cccc(-c2ccc(CN(C(=O)NC(C)C)c3cccc(/C=C/C(=O)OC)c3)cc2)c1` [Compound 228], where the note is “Tables 1-15”, the EC50 was 2350 nM and the RE is reported as 0.33.
As for `COC(=O)/C=C/c1cccc(N(Cc2ccc(-c3ccc(OC)cc3)cc2)C(=O)C2CCCCC2)c1` [Compound 229], the “FXR activation (in words)” value is on record as “excellent activity”. Moreover, where the note is “Tables 1-15”, the concentration giving a half-maximal response (EC50) turned out to be 89 nM and the RE was 1.71.
Regarding `COC(=O)/C=C/c1cccc(N(Cc2ccc(-c3ccc(OC)cc3)cc2)C(=O)C(C)C)c1` [Compound 230], the “FXR activation (in words)” value is given as “excellent activity”. For the same molecule, under “Tables 1-15”, the EC50 was 97 nM.
On to `COC(=O)/C=C/c1cccc(N(Cc2ccc(-c3ccc(OC)cc3)cc2)C(=O)NC(C)C)c1` [Compound 231], for which, under “Tables 1-15”, the EC50 was 144 nM and the RE came to 1.16.
In the case of `COC(=O)/C=C/c1cccc(N(Cc2ccc(-c3cccc(Cl)c3)cc2)C(=O)C2CCCCC2)c1` [Compound 232], the “FXR activation (in words)” value is “excellent activity”. For the same molecule, where the note is “Tables 1-15”, the EC50 was determined as 94 nM and the RE was determined as 1.56.
For the molecule `COC(=O)/C=C/c1cccc(N(Cc2ccc(-c3cccc(Cl)c3)cc2)C(=O)C(C)C)c1` [Compound 233], the “FXR activation (in words)” value is on record as “excellent activity”.
As for `COC(=O)/C=C/c1cccc(N(Cc2ccc(-c3cccc(Cl)c3)cc2)C(=O)NC(C)C)c1` [Compound 234], where the note is “Tables 1-15”, the concentration for a half-maximal effect (EC50) is 1400 nM and the RE is recorded as 0.49.
For the molecule `COC(=O)/C=C/c1cccc(N(Cc2ccc(-c3ccc(C)cc3)cc2)C(=O)C2CCCCC2)c1` [Compound 235], the “FXR activation (in words)” value is “excellent activity”. In addition, where the note is “Tables 1-15”, the EC50 stood at 26 nM and the RE came to 1.38.
In the case of `COC(=O)/C=C/c1cccc(N(Cc2ccc(-c3ccc(C)cc3)cc2)C(=O)C(C)C)c1` [Compound 236], the “FXR activation (in words)” value is on record as “excellent activity”. For the same molecule, for the setting “Tables 1-15”, the EC50 came to 118 nM and the RE amounted to 1.48.
In the case of `COC(=O)/C=C/c1cccc(N(Cc2ccc(-c3ccc(C)cc3)cc2)C(=O)NC(C)C)c1` [Compound 237], under “Tables 1-15”, the EC50 came to 449 nM and the RE was 0.80.
In the case of `COC(=O)/C=C/c1cccc(N(Cc2ccc(-c3cccc(C)c3)cc2)C(=O)C2CCCCC2)c1` [Compound 238], the “FXR activation (in words)” value is reported as “excellent activity”. In addition, for the setting “Tables 1-15”, the 50% effective concentration (EC50) worked out at 109 nM and the RE is listed as 1.43.
Regarding `COC(=O)/C=C/c1cccc(N(Cc2ccc(-c3cccc(C)c3)cc2)C(=O)C(C)C)c1` [Compound 239], where the note is “Tables 1-15”, the EC50 was 163 nM and the RE turned out to be 1.09.
As for `COC(=O)/C=C/c1cccc(N(Cc2ccc(-c3cccc(C)c3)cc2)C(=O)NC(C)C)c1` [Compound 240], for the setting “Tables 1-15”, the EC50 was 1330 nM and the RE stood at 0.53.
The corresponding values for `COC(=O)/C=C/c1cccc(N(Cc2ccc(-c3cc(Cl)ccc3OC)cc2)C(=O)C2CCCCC2)c1` [Compound 241] are 233 nM and 1.16.
The corresponding values for `COC(=O)/C=C/c1cccc(N(Cc2ccc(-c3cc(Cl)ccc3OC)cc2)C(=O)C(C)C)c1` [Compound 242] are 226 nM and 0.79.
On to `COC(=O)/C=C/c1cccc(N(Cc2ccc(-c3cc(Cl)ccc3OC)cc2)C(=O)NC(C)C)c1` [Compound 243], for which, where the note is “Tables 1-15”, the EC50 was determined as 3080 nM and the RE is listed as 0.17.
`COC(=O)/C=C/c1cccc(N(Cc2ccc(-c3ccc4c(c3)OCO4)cc2)C(=O)C2CCCCC2)c1` [Compound 244]: the EC50 turned out to be 38 nM and the “FXR activation (in words)” value was “excellent activity”. The molecule further showed an RE (Tables 1-15) of 1.90.
Turning to `COC(=O)/C=C/c1cccc(N(Cc2ccc(-c3ccc4c(c3)OCO4)cc2)C(=O)C(C)C)c1` [Compound 245], the “FXR activation (in words)” value was “excellent activity”. Besides, under “Tables 1-15”, the EC50 was determined as 19 nM and the RE is given as 1.25.
